Non-standard residues stand in square brackets, D forms with d. No end group written: not given here.
Legend:
[1] = system: SOD1 protein aggregates (EGFP-SOD1 G93A); test: Western blot of SOD1 protein aggregates in transfected HEK293T cells treated with bafilomycin; type: cell-based; conditions: 100 nM bafilomycin alone vs control
Protocol: FIG. 2A is the results of a western blot analysis of SOD1 protein expression levels of protein samples obtained 18 h after treatment of HEK293T cells transfected to express SOD1 with either 100 nM bafilomycin alone or in combination with 30 μM of some peptides according to one embodiment of the present invention, to investigate the degradation of SOD1 protein aggregates by treatment with some peptides (ZC303, ZC304, ZC309, ZC311) according to one embodiment of the present invention. FIG. 2B is a graph showing the results of quantification of the relative expression. In FIG. 2B, * indicates a significant difference from the treatment with bafilomycin alone (* p<0.05).
(§1) The present inventors conducted an Western blot analysis to investigate whether some of the peptides (ZC303, ZC304, ZC309, ZC311) comprising the amino acid sequences designated as SEQ ID NO: 1 to 15 could resolve SOD1 aggregates that formed after transient transfection of SOD1 protein into HEK293T cell lines. Specifically, the present inventors transiently transfected EGFP-SOD1 G93A DNA into the HEK293T cell line using Lipofectamine 2000. […] The obtained cell lysate was subjected to protein quantification using BCA protein assay kit (Pierce Biotechnology, USA). […]

[2] = system: H4 cell lines expressing GFP-tagged LC3 (GL-H4); test: Autophagic flow blocked by Bafilomycin A-1: LC3-GFP puncta by fluorescence microscopy; type: cell-based; conditions: 100 nM bafilomycin alone, GL-H4 cells
Protocol: FIGS. 1A and 1B are a series of fluorescence micrographs showing that autophagic flow blocked by Bafilomycin A-1 is restored by the peptides according to one embodiment of the present invention, wherein an H4 cell line (GL-H4) stably overexpressing GFP-LC3 protein was treated with various peptides according to one embodiment of the present invention at a concentration of 20 μM in combination with Bafilomycin, whose LC3-GFP spots were photographed after 12 hours. FIGS. 1C and 1D are graphs showing quantification of the fluorescence intensity of LC3-GFP spots 12 hours after the treatment of the GL-H4 cell line with the peptides according to one embodiment of the present invention in combination with bafilomycin at a concentration of 20 μM. […]
To investigate the effect of the peptides comprising the amino acid sequences designated as SEQ ID NOs: 1 to 15 on autophagic flow, the present inventors treated H4 cell lines expressing GFP-tagged LC3 (GL-H4) with MEM and then used the above peptides (20 μM) and the autophagy inhibitor Bafilomycin A-1, Baf A1, 100 nM) to inhibit autophagy. Later, the effect of the peptides according to one embodiment of the present invention was investigated by fluorescence microscopy analysis. […]

[3] = system: α-synuclein protein aggregates (EGFP-a-synuclein A53T); test: Western blot of α-synuclein protein aggregates in transfected HEK293T cells treated with bafilomycin; type: cell-based; conditions: 100 nM bafilomycin alone vs control
Protocol: FIG. 4A is the results of a western blot analysis of a-synuclein expression levels of protein samples obtained 18 h after treatment of HEK293T cells transfected to express a-synuclein protein with either 100 nM bafilomycin alone or in combination with 30 μM of some peptides according to one embodiment of the present invention, to investigate the degradation of a-synuclein protein aggregates by treatment with some peptides (ZC303, ZC304, ZC309, ZC311) according to one embodiment of the present invention.
as §1, with “2000. After transfection, the cell lines were incubated in a cell incubator at 37° C., 5% CO2 for 30 h and the culture medium was replaced with Minimum Essential Medium (MEM, Gibco, USA). After a 30 min pre-treatment with 100 nM bafilomycin, 30 μM of peptide was added and incubated for 18 h of post-treatment.” for “2000.”

[4] = system: mutant huntingtin protein aggregates (GFP-mHttQ74); test: Western blot of mutant huntingtin protein aggregates in transfected HEK293T cells treated with bafilomycin; type: cell-based; conditions: 100 nM bafilomycin alone vs control
Protocol: FIG. 5 is the results of a Western blot analysis of mutant huntingtin protein expression levels of protein samples obtained 18 h after treatment of HEK293T cells transfected to express mutant huntingtin protein with either 100 nM bafilomycin alone or in combination with 30 μM of some peptides according to one embodiment of the present invention, to investigate the degradation of mutant huntingtin protein aggregates by treatment with some peptides (ZC303, ZC304, ZC309, ZC311) according to one embodiment of the present invention.
as §1, with “2000. After transfection, the cell lines were incubated in a cell incubator at 37° C., 5% CO2 for 30 h and the culture medium was replaced with Minimum Essential Medium (MEM, Gibco, USA). After a 30 min pre-treatment with 100 nM bafilomycin, 30 μM of peptide was added and incubated for 18 h of post-treatment.” for “2000.”

[5] = system: mutant tau protein aggregates (EGFP-Tau P301L); test: Western blot of mutant tau protein aggregates in transfected HEK293T cells treated with bafilomycin; type: cell-based; conditions: 100 nM bafilomycin alone vs controls
[6] = system: P-Tau S214, P-Tau T205, unphosphorylated tau, p62, LC3, β-amyloid (APP); test: Western blot of aggregate-forming proteins in cerebral cortex and hippocampus of Alzheimer's model animals; type: in vivo; conditions: 5XFAD mice, 20 mg/kg IP, 25 weeks
Text: Based on the results of Experimental example 7-2 above, the present inventors investigated the expression of pathogenic aggregate-forming proteins such as tau protein, p62, and LC3 in brain tissue other than β-amyloid by Western blot analysis.
Specifically, cortical and hippocampal tissues were obtained from experimental animals sacrificed after experiments, and the tissues were lysed and subjected to Western blot analysis in the same manner as Experimental example 3, using antibodies that specifically bind to phosphorylated tau S214 (P-Tau S214), phosphorylated tau T205 (P-Tau T205), unphosphorylated tau, p62, LC3, and β-amyloid (APP), respectively.

[7] = system: amyotrophic lateral sclerosis model animal (G93A-SOD1); test: Rotarod test in ALS model animals; type: in vivo; conditions: G93A-SOD1 mice, 40 mg/kg SC five days per week from age 112 to 200 days, 15 rpm, 300 seconds
Protocol: (§2) To determine whether the peptide according to one embodiment of the present invention has therapeutic effects on amyotrophic lateral sclerosis (ALS) in vivo, the present inventors administered the peptide according to one embodiment of the present invention (ZC311) to an amyotrophic lateral sclerosis model animal (G93A-SOD1) at 40 mg/kg by subcutaneous (SC) injection repeatedly five days per week (Monday through Friday) from the age of 112 days to 200 days.
The animals were then subjected to a rotarod test twice a week at intervals of up to 3-4 days to evaluate their motor function. The rotarod test was performed using a rotarod treadmill (Cat. No. DJ-345, Dae Jong, Seoul, Korea) to evaluate impaired coordination, the main symptom of basal ganglia lesion disease, by measuring the time for the subject animals (n=11, 8, and 10) to fall off the rod during three repetitions of 300 seconds at a constant speed of 15 rpm. 300 seconds was set to be a perfect score, and the highest score was used.

[8] = Body weight change in ALS model animals; type: in vivo; conditions: G93A-SOD1 mice, 40 mg/kg SC five days per week from age 112 to 200 days
Protocol: as §2
The present inventors measured changes in body weight over time during the behavioral analysis of Experimental example 8-1 above.

β-amyloid aggregates = test: Thioflavin S and Congo red staining of β-amyloid plaques in brain sections of Alzheimer's model animals; type: in vivo; conditions: 5XFAD mice, cortex and hippocampus, 20 mg/kg IP, 25 weeks, vs model animals given PBS alone
Text: To determine whether the peptides according to one embodiment of the present invention could inhibit the accumulation of β-amyloid aggregates in the brain as a pathologic phenomenon of Alzheimer's disease, even under realistic in vivo conditions as shown by the results of Experiments 4 and 5 above, brain tissue sections obtained from experimental animals sacrificed after the peptide administration for 25 weeks were stained with thioflavin S and Congo red that have selective affinity for β-amyloid plaques.
Specifically, for thioflavin S staining, the brain of a dementia model mouse was harvested and freeze-dried in O.C.T compound (Sakura finetec, USA), and brain sections were obtained by coronal sectioning and mounted on glass slides coated with 0.1% poly-L-lysine. The obtained brain sections were washed in 70% ethanol for 1 min, then in 80% ethanol for 1 min again, and stained in 1% thiflavin S solution (MilliporeSigma, USA) for 15 min. […] Finally, the β-amyloid senile spots were observed through fluorescence microscopy.
Congo red staining to identify amyloid was performed as follows. […] The amyloid senile spots were observed under a fluorescence microscope, and the number of stained senile spots and amyloid per brain section was counted and quantified with a statistical program (Graph prism).

[9] = system: amyotrophic lateral sclerosis model animal (G93A-SOD1); test: Survival rate of ALS model animals; type: in vivo; conditions: G93A-SOD1 mice, 40 mg/kg SC five days per week from age 112 days; untreated model 162 days
Protocol: as §2
In contrast, ALS model mice treated with the peptide according to one embodiment of the present invention began to die at a similar time to the control group, but the time to death was delayed (50% survival 183 days).

Compound | SOD1 protein aggregates [1] | number and size of LC3 spots [2] | α-synuclein protein aggregates [3] | mutant huntingtin protein aggregates [4] | mutant tau protein aggregates [5] | expression of aggregate-forming proteins in the cerebral cortex [6] | expression of aggregate-forming proteins in the hippocampus [6] | development of ataxia (rotarod) [7] | progressive body weight loss over time [8] | accumulation of β-amyloid aggregates (plaques, thioflavin S and Congo red) (β-amyloid aggregates) | 50% survival [9]
CO/C1=C\C(C)=C\[C@@H](C)[C@@H](O)[C@@H](C)C/C(C)=C/C=C/[C@H](OC)[C@@H]([C@@H](C)[C@@H](O)[C@H](C)[C@@]2(O)C[C@@H](O)[C@H](C)[C@@H](C(C)C)O2)OC1=O [bafilomycin, Bafilomycin A-1] | increased | significantly increased | increased | increased | increased | – | – | – | – | – | –
ZC311 ([dH]G[dV][dS]GHGQ[dH]G[dV][dH]G; not fully specified (residues 6, 8)) | – | – | – | – | – | significantly lower | significantly lower | delayed | not altered | significantly inhibited | 183 days
